How the values were obtained:
Rattus norvegicus [1] = assay: Compound was tested for oral diuretic effect on spontaneously hypertensive rats by measuring the potassium excretion at 1 mg/kg concentration; type: ADME, organism-based, Urine; set-up: dose 1 mg/kg, route oral; conditions: in vivo
Rattus norvegicus [2] = assay: Compound was tested for oral diuretic effect on spontaneously hypertensive rats by measuring the potassium excretion at 5 mg/kg concentration; type: ADME, organism-based, Urine; set-up: dose 5 mg/kg, route oral; conditions: in vivo
Rattus norvegicus [3] = species on record: Rattus norvegicus; assay: Compound was tested for oral diuretic effect on spontaneously hypertensive rats by measuring the potassium excretion at vehicle concentration; type: ADME, organism-based, Urine; conditions: in vivo
Rattus norvegicus [4] = assay: Compound was tested for oral diuretic effect on spontaneously hypertensive rats by measuring the excretion of sodium at 5 mg/kg concentration.; type: ADME, organism-based, Urine; set-up: dose 5 mg/kg, route oral; conditions: in vivo
Rattus norvegicus [5] = species on record: Rattus norvegicus; assay: Compound was tested for oral diuretic effect on spontaneously hypertensive rats by measuring the excretion of sodium at vehicle concentration; type: ADME, organism-based, Urine; conditions: in vivo
Rattus norvegicus [6] = assay: Compound was tested for oral diuretic effect on spontaneously hypertensive rats by measuring the excretion of sodium at 1 mg/kg concentration; type: ADME, organism-based, Urine; set-up: dose 1 mg/kg, route oral; conditions: in vivo
Rattus norvegicus [7] = assay: Compound was tested for hypotensive activity in anesthetized normotensive rats by intravenous injection, Systolic blood pressure measured 30 min after injection; type: functional; conditions: 0.5 h
Rattus norvegicus [8] = assay: Compound was tested for oral diuretic effect on spontaneously hypertensive rats by measuring the urinary volume at 1 mg/kg concentration; type: functional, Urine
Rattus norvegicus [9] = assay: Compound was tested for oral diuretic effect on spontaneously hypertensive rats by measuring the urinary volume at 5 mg/kg concentration; type: functional, Urine
Rattus norvegicus [10] = species on record: Rattus norvegicus; assay: Compound was tested for oral diuretic effect on spontaneously hypertensive rats by measuring the urinary volume at vehicle concentration; type: functional, Urine
[11] = Ratio between Na+ and K+ excretion values at a dose of 1 mg/kg; type: ADME, organism-based; set-up: dose 1 mg/kg; conditions: in vivo
[12] = Ratio between Na+ and K+ excretion values at a dose of 5 mg/kg; type: ADME, organism-based; set-up: dose 5 mg/kg; conditions: in vivo
Rattus norvegicus [13] = assay: Compound was tested for oral diuretic effect on spontaneously hypertensive rats by measuring the excretion of sodium at 5 mg/kg concentration; type: ADME, organism-based, Urine; set-up: dose 5 mg/kg, route oral; conditions: in vivo
Rattus norvegicus [14] = assay: Compound was tested for hypotensive activity in anesthetized normotensive rats by intravenous injection. Systolic blood pressure measured 30 min after injection; type: functional
Rattus norvegicus [15] = species on record: Rattus norvegicus; assay: Compound was tested for vasorelaxant activity on the basis of ability to relax endothelium-denuded rat aortic strips toned with 20 mM KCl; type: functional, Aorta
[16] = Rattus norvegicus, Blood, iv, 0.5 h, read-out: ED30

| K+ excretion (Rattus norvegicus [1]) | K+ excretion (Rattus norvegicus [2]) | K+ excretion (Rattus norvegicus [3]) | Na+ excretion (Rattus norvegicus [5]) | Na+ excretion (Rattus norvegicus [6]) | Ratio [11] | Ratio [12] | IC50 (Rattus norvegicus [15]) | IC50 (Rattus norvegicus [15]; Rattus norvegicus, Aorta) | SMILES | Urinary volume (Rattus norvegicus [8]) | Urinary volume (Rattus norvegicus [9]) | Urinary volume (Rattus norvegicus [10]) | ED30 (Rattus norvegicus [14]; [16]) | also measured |
| --- | --- | --- | --- | --- | --- | --- | --- | --- | --- | --- | --- | --- | --- | --- |
| 1.35 m equiv 5hr-1 kg-1 | 1.249 m equiv 5hr-1 kg-1 | 1.078 m equiv 5hr-1 kg-1 | 1.357 m equiv 5hr-1 kg-1 | 1.523 m equiv 5hr-1 kg-1 | 1.08 | 0.5 |  |  | Cl.N#CN/C(=N\[C@@H]1CC2CCC1C2)Nc1ccc(N)nc1 (mixture of isomers) | 8.77 ml kg-1 5hr-1 | 4.68 ml kg-1 5hr-1 | 5.15 ml kg-1 5hr-1 |  | Na+ excretion (Rattus norvegicus [4]): 0.694 m equiv 5hr-1 kg-1; ED30 (Rattus norvegicus [7]): 0.51 mg/kg |
| 0.747 m equiv 5hr-1 kg-1 | 0.515 m equiv 5hr-1 kg-1 | 0.8 m equiv 5hr-1 kg-1 | 1.072 m equiv 5hr-1 kg-1 | 0.8 m equiv 5hr-1 kg-1 | 1.08 | 0.59 | 0.079 µM |  | C[C@]12CC[C@H](C[C@@H]1/N=C(\NC#N)Nc1ccc(N)nc1)C2.Cl (racemic) | 6.92 ml kg-1 5hr-1 | 7.31 ml kg-1 5hr-1 | 6.84 ml kg-1 5hr-1 | 0.2 mg/kg | Na+ excretion (Rattus norvegicus [13]): 0.311 m equiv 5hr-1 kg-1 |
| 1.546 m equiv 5hr-1 kg-1 | 0.584 m equiv 5hr-1 kg-1 | 1.078 m equiv 5hr-1 kg-1 | 1.357 m equiv 5hr-1 kg-1 | 1.27 m equiv 5hr-1 kg-1 | 0.78 | 0.12 |  | 0.38 µM | CC(N/C(=N\C#N)Nc1ccncc1)C(C)(C)C (stereo not given) [PINACIDIL ANHYDROUS] | 7.62 ml kg-1 5hr-1 | 2.56 ml kg-1 5hr-1 | 5.15 ml kg-1 5hr-1 | 0.15 mg/kg | Na+ excretion (Rattus norvegicus [13]): 0.078 m equiv 5hr-1 kg-1 |
|  |  |  |  |  |  |  |  | 0.118 µM | C[C@]12CC[C@H](C[C@@H]1/N=C(\NC#N)Nc1ccc(N)nc1)C2 |  |  |  | 0.18 mg/kg |  |
| 0.646 m equiv 5hr-1 kg-1 | 1.46 m equiv 5hr-1 kg-1 | 0.8 m equiv 5hr-1 kg-1 | 1.072 m equiv 5hr-1 kg-1 | 0.89 m equiv 5hr-1 kg-1 | 1.54 | 1.27 | 0.392 µM |  | Cl.N#CN/C(=N\[C@H]1C[C@H]2CC[C@@H]1C2)Nc1ccc(N)nc1 (racemic) | 5.53 ml kg-1 5hr-1 | 18.37 ml kg-1 5hr-1 | 6.84 ml kg-1 5hr-1 | 0.17 mg/kg | Na+ excretion (Rattus norvegicus [13]): 1.865 m equiv 5hr-1 kg-1 |
|  |  |  |  |  |  |  |  | 0.11 µM | CC1(C)Oc2ccc(C#N)cc2[C@@H](N2CCCC2=O)[C@@H]1O [CROMAKALIM] |  |  |  | 0.11 mg/kg |  |
|  |  |  |  |  |  |  | 0.071 µM |  | C[C@]12CC[C@H](C[C@@H]1/N=C(\NC#N)Nc1ccc(N)nc1)C2.Cl |  |  |  |  | ED30 (Rattus norvegicus [14]): 0.28 mg/kg |
|  |  |  |  |  |  |  |  | 0.278 µM | N#CN/C(=N\[C@@H]1C[C@H]2CC[C@@H]1C2)Nc1ccc(N)nc1 (stereo in doubt; (-)-9) |  |  |  | 0.57 mg/kg |  |
|  |  |  |  |  |  |  | 0.267 µM |  | N#CN/C(=N\[C@@H]1C[C@H]2CC[C@@H]1C2)Nc1ccc(N)nc1 (stereo in doubt; (+)-9) |  |  |  |  | ED30 (Rattus norvegicus [14]): 0.4 mg/kg |
|  |  |  |  |  |  |  | 0.09 µM |  | N#CN/C(=N\[C@H]1C[C@H]2CC[C@@H]1C2)Nc1ccc(N)nc1 |  |  |  | 0.1 mg/kg |  |
|  |  |  |  |  |  |  |  | 0.593 µM | Cl.N#CN/C(=N\C1CC2CCC1C2)Nc1ccc(N)nc1 (stereo not given) |  |  |  | 0.74 mg/kg |  |

From ChEMBL document CHEMBL1127557, “Novel potassium-channel openers: preparation and pharmacological evaluation of racemic and optically active N-(6-amino-3-pyridyl)-N'-bicycloalkyl-N"-cyanoguanidine derivatives” (J Med Chem, 1994)
